Data from patent US11957143B2, “Highly-soluble rebaudioside D” (SUNTORY HOLDINGS LIMITED, priority 2018, dated 2024).

Key:
Assay type in all cases: physicochemical
[1] = Solubility of crystals of Reb. D, amount dissolved (FIG. 6); conditions: 300 mg in pure water (150 ml) at 7.5° C., stirring at 200 rpm, 0.45-um filter
Procedure: The crystals of Reb. D in the crystalline form α and the crystalline form β and a control (commercially available Reb. D in a stable form) were provided, to compare their solubilities. The crystal in the crystalline form α used was obtained by maintaining Reb. D at 50° C. for 1 hour, followed by appropriate N2 purge, and the crystal in the crystalline form β used was obtained by maintaining Reb. D at 100° C. for 1.5 hours, followed by appropriate N2 purge and then overnight cooling at normal temperature. The conditions for dissolution and sample preparation are shown below.
300 mg of Reb. D was added to pure water (150 ml) at 7.5° C., followed by stirring at 200 rpm, for dissolution.
(§1) Sample Preparation Conditions:
A 0.45-um filter was immersed in the solution for 30 seconds, and then a filtrate was obtained through the filter. 1 ml of the filtrate obtained was collected and diluted 10-fold with pure water.

[2] = Moisture content of crystalline forms (FIG. 10); conditions: sample heating 130° C. in N2, trace moisture analyzer
Procedure: The “moisture content” herein means the proportion of water contained in the crystal and is the proportion (wt %) of the weight of water based on the weight of the entire crystal. The moisture content of the crystal can be determined, for example, by heating the crystal at a high temperature (for example, 130° C.) under an inert atmosphere, and calculating from the change in weight between before and after the heating. The crystal of Reb. D of the present invention preferably has a moisture content of 0.1 wt % to 2.0 wt %, more preferably 0.2 wt % to 1.2 wt %, further preferably 0.40 wt % to 0.8 wt %.
The crystals of Reb. D in the crystalline form α and the crystalline form β and the control (in a stable form) were provided, and their moisture contents were compared. […] The devices and the conditions used for measuring the moisture contents are shown below.
Devices: • Trace moisture analyzer: CA-200, manufactured by Mitsubishi Chemical Analytech Co., Ltd. • Water vaporizer: VA-200 • Reagents: AQUAMICRON AX as anolyte and AQUAMICRON CXU as catholyte • Sample heating: 130° C. in an inert gas atmosphere (gas: N2, flow rate: 300 ml/min)

[3] = Turbidity (NTU) and amount dissolved 40 minutes after dissolution (FIG. 7); conditions: 90 mg in 150 ml pure water at 7.5° C., 350 rpm, 40 minutes later, versus control
Procedure: The “turbidity (NTU)” herein means the degree of turbidity when the Reb. D is dissolved in water, and the lower the turbidity means that the Reb. D is dissolved better. The turbidity can be measured by a known method, for example, using an existing absorptiometer.
Then, the solubilities were evaluated under the conditions varied. The crystal in the crystalline form α used was obtained by maintaining at 55° C. for 2 hours, followed by appropriate N2 purge and then natural cooling in vacuo. The dissolution conditions, the conditions of turbidity (NTU) measurement, and the sample preparation conditions are shown below.
90 mg of Reb. D was added to 150 ml of pure water (equivalent to 300 mg/500 ml) at 7.5° C., followed by stirring at 350 rpm for dissolution. The degree of dissolution was checked 40 minutes later.
Conditions of Turbidity (NTU) Measurement:
30 ml was collected 40 minutes later, and the turbidity (NTU) was measured. The turbidity was measured with an absorptiometer (2100AN, manufactured by Hach Company) by turbidimetry using formazin as a standard solution.
as §1
A 0.45-um filter was immersed in the solution for 6 seconds, and then a filtrate was obtained through the filter. 1 ml of the filtrate obtained was collected and diluted 10-fold with pure water.

[4] = Improvement in solubility by supplementary addition of crystal to saturated Reb. D solution (FIG. 9)
Procedure: Using the Reb. D in the crystalline form α, tests were conducted to confirm that the solubility of commercially available Reb. D was improved. […] First, commercially available Reb. D (in a stable form) was added to water to a saturated state. 24 hours later, the crystal of Reb. D in the crystalline form α was added to the saturated solution. Sampling was performed 24 hours later, 25 hours later, and 48 hours later, to check the amount of the Reb. D dissolved. […] D in the crystalline form α was added.

SMILES | amount dissolved as compared with the control (Cont) [1] | moisture content [2] | amount dissolved [3] | turbidity (NTU) [3] | persistence of the increase in amount dissolved ([4]; 24 hours after the crystal was added to the saturated solution) | amount of Reb. D dissolved after addition of the crystal to a saturated solution of commercially available Reb. D ([4]; crystal added 24 hours after saturation with stable form)
C=C1C[C@@]23CC[C@H]4[C@@](C)(CCC[C@@]4(C)C(=O)O[C@@H]4O[C@H](CO)[C@@H](O)[C@H](O)[C@H]4O[C@@H]4O[C@H](CO)[C@@H](O)[C@H](O)[C@H]4O)[C@@H]2CC[C@]1(O[C@@H]1O[C@H](CO)[C@@H](O)[C@H](O[C@@H]2O[C@H](CO)[C@@H](O)[C@H](O)[C@H]2O)[C@H]1O[C@@H]1O[C@H](CO)[C@@H](O)[C@H](O)[C@H]1O)C3 [crystalline form β, rebaudioside D] | increased | 0.37 wt % |  |  |  | 
C=C1C[C@@]23CC[C@H]4[C@@](C)(CCC[C@@]4(C)C(=O)O[C@@H]4O[C@H](CO)[C@@H](O)[C@H](O)[C@H]4O[C@@H]4O[C@H](CO)[C@@H](O)[C@H](O)[C@H]4O)[C@@H]2CC[C@]1(O[C@@H]1O[C@H](CO)[C@@H](O)[C@H](O[C@@H]2O[C@H](CO)[C@@H](O)[C@H](O)[C@H]2O)[C@H]1O[C@@H]1O[C@H](CO)[C@@H](O)[C@H](O)[C@H]1O)C3 [crystalline form α, rebaudioside D] | increased | 0.67 wt % | tended to increase | tended to be low | the increase continued | further increased
C=C1C[C@@]23CC[C@H]4[C@@](C)(CCC[C@@]4(C)C(=O)O[C@@H]4O[C@H](CO)[C@@H](O)[C@H](O)[C@H]4O[C@@H]4O[C@H](CO)[C@@H](O)[C@H](O)[C@H]4O)[C@@H]2CC[C@]1(O[C@@H]1O[C@H](CO)[C@@H](O)[C@H](O[C@@H]2O[C@H](CO)[C@@H](O)[C@H](O)[C@H]2O)[C@H]1O[C@@H]1O[C@H](CO)[C@@H](O)[C@H](O)[C@H]1O)C3 [control, rebaudioside D] |  | over 5 wt % |  |  |  | 
